The source of these data is US20250352497A1, “BIGUANIDE BASE COMPOSITIONS, BIGUANIDE BASE PHARMACEUTICAL COMPOSITIONS, AND THEIR PREPARATIONS AND USES” (ADA FORSYTH INSTITUTE, INC., priority 2022, published 2025).

Type in all cases: cell-based
Assay [1] relates to model microbiome simulating human oral microbiome. The experiment in a line: pH of model microbiome (supernatant and saliva-derived biofilm) after treatment in the presence of 2% sucrose. The procedure: (§1) Saliva samples were collected and pooled from 5 healthy volunteers as a model microbiome simulating human oral microbiome, and used to inoculate SHI medium containing different test compositions and controls.
(§2) 1 mL pooled saliva sample was added to each well of a 24-well plate that had been pre-coated with sterilized, cell-free saliva. The plate was incubated at 37° C. for 16 h in microaerobic conditions (2% O2, 5% CO2, balanced with nitrogen) to allow biofilm formation. After incubation, planktonic portion was collected, optical density was measured at 600 nm and cells were pelleted for DNA isolation. Meanwhile, 1 mL of SHI medium was added to the biofilm portion of each well, biofilm cells were dispersed by scraping and vortex to break the cell aggregates. Optical density was measured at 600 nm and cells were collected for DNA isolation.
Supernatant and biofilms prepared with the model microbiome simulating human oral microbiome according to Example III were treated with embodiments of the CHX base composition (e.g., solution embodiments of the CHX base composition prepared according to Example I (the CHX base solutions); and MSN3 prepared according to Example II(B)(ii)).
Supernatant and biofilms prepared with the model microbiome simulating human oral microbiome according to Example III were treated with CHX base solution (100 μg/mL, prepared according to Example I(A)); MSN3 (100 μg/mL and 125 μg/mL of CHX base, prepared according to Example I(B)); or nothing (control).

Assay [2] shares this test system. The experiment in a line: Bacterial killing effects on model microbiome (optical density at 600 nm). The procedure: as §1, §2
However, the pH of the treated biofilm appeared to depend on the CHX base concentration administered. The pH of the biofilm treated with CHX base solutions and CHX base loaded MSN remained under 5.5 when the CHX base concentration was 75 μg/mL or lower. […]

The test system is the same in assay [3]. The assay can be described thus: Total colony forming units in supernatant and biofilm after treatment. The conditions noted are these: supernatant and biofilms. The procedure: as §1, §2
CHX-G and CPC were also evaluated in the same model microbiome prepared in supernatant and biofilms according to Example III.

Bounds are passed on as bounds.

On to `[H]/N=C(\N/C(=N/[H])NCCCCCCNC(=N)NC(=N)Nc1ccc(Cl)cc1)Nc1ccc(Cl)cc1` [CHX base, Chlorhexidine], for which the “pH of treated microbiome/biofilm compared with control” value in assay [1] (Example IV, 16 hr, 2% sucrose) is reported as “higher pH”. For the same compound, the “pH of the treated microbiome” value in assay [1] (supernatant and biofilms, various concentrations) is on record as at most 6.9. Also, the “cells present after treatment” value in assay [2] (Example IV(B): CHX base solution 100 μg/mL, MSN3 100 and 125 μg/mL of CHX base) is recorded as “abundant of cells”. In addition, the “survival/elimination of bacteria after treatment” value in assay [2] (Example IV, supernatant and biofilms) was “without complete elimination of bacteria”.
In the case of `N=C(NCCCCCCNC(=N)NC(=N)Nc1ccc(Cl)cc1)NC(=N)Nc1ccc(Cl)cc1.O=C(O)[C@H](O)[C@@H](O)[C@H](O)[C@H](O)CO.O=C(O)[C@H](O)[C@@H](O)[C@H](O)[C@H](O)CO` [CHX-G, chlorhexidine digluconate], the “pH of treated biofilms compared with untreated biofilms” value in assay [1] (Example V) is listed as “higher pH”. Also, in assay [3] (200 μg/mL), the “bacterial killing compared with MSN3 (200 μg/mL of CHX base)” value is “killed more bacteria”. The “bacteria remaining after treatment” value in assay [3] (Example V) is “no trace of bacteria”.
